Laboratory results from US20210368793A1, “Method for Controlling PPO Resistant Weeds” (BASF SE, priority 2016, published 2021).

Tests used:
Format in all cases: in vivo
[1] = test system: Amaranthus tamariscinus (common waterhemp, AMATA), sensitive biotype (w.1); experiment: Greenhouse herbicidal test, sensitive common waterhemp (w.1); settings: for Weed control (%) w.1: sensitive biotype, scale 0 (no damage) to 100 (complete destruction)
Source text: (§1) The culture containers used were plastic flowerpots containing loamy sand with approximately 3.0% of humus as the substrate. The seeds of the test plants were sown separately for each species and/or resistant biotype. For the pre-emergence treatment, the active ingredients, which had been suspended or emulsified in water, were applied directly after sowing by means of finely distributing nozzles. The containers were irrigated gently to promote germination and growth and subsequently covered with transparent plastic hoods until the plants had rooted. This cover caused uniform germination of the test plants, unless this had been impaired by the active ingredients. For the post-emergence treatment, the test plants were first grown to a height of 3 to 15 cm, depending on the plant habit, and only then treated with the active ingredients which had been suspended or emulsified in water. For this purpose, the test plants were either sown directly and grown in the same containers, or they were first grown separately as seedlings and transplanted into the test containers a few days prior to treatment. Depending on the species, the plants were kept at 10-25° C. or 20-35° C., respectively. The test period extended over 2 to 4 weeks. During this time, the plants were tended, and their response to the individual treatments was evaluated. The evaluation was carried out by using a scale from 0 to 100. 100 means no emergence of the plants or complete destruction of at least the above-ground parts, and 0 means no damage, or normal course of growth.
(§2) The plants used in the greenhouse experiments were of the following species and biotype: […]

[2] = test system: Amaranthus tamariscinus (common waterhemp, AMATA), PPO resistant biotype 1 containing the ΔG210 mutation (w.2); experiment: Greenhouse herbicidal test, PPO resistant common waterhemp biotype 1 (w.2); settings: for activity on resistant weeds (w.2), in words: summary of the table, 2 and 4 g/ha, ΔG210 mutation; for Weed control (%) w.2: PPO resistant biotype 1 (ΔG210), scale 0 to 100
Source text: as §1, §2

[3] = test system: Amaranthus tamariscinus (common waterhemp, AMATA), PPO resistant biotype 2 containing the ΔG210 mutation (w.3); experiment: Greenhouse herbicidal test, PPO resistant common waterhemp biotype 2 (w.3); settings: for activity on resistant weeds (w.3), in words: summary of the table, 2 and 4 g/ha, ΔG210 mutation; for Weed control (%) w.3: PPO resistant biotype 2 (ΔG210), scale 0 to 100
Source text: as §1, §2

Compound	Weed control (%) w.1 ([1]; use rate 2 g/ha) [%]	Weed control (%) w.1 ([1]; use rate 4 g/ha) [%]	activity on resistant weeds (w.2), in words [2]	Weed control (%) w.2 ([2]; use rate 2 g/ha) [%]	Weed control (%) w.2 ([2]; use rate 4 g/ha) [%]	activity on resistant weeds (w.3), in words [3]	Weed control (%) w.3 ([3]; use rate 2 g/ha) [%]	Weed control (%) w.3 ([3]; use rate 4 g/ha) [%]	activity on sensitive weeds (w.1), in words ([1]; summary of the table, 2 and 4 g/ha)
C#CCOc1cc(-n2nc3n(c2=O)CCCC3)c(Cl)cc1Cl [azafenidin, reference compound]	88	100	much weaker control of resistant in comparison to sensitive biotypes	62	78	much weaker control of resistant in comparison to sensitive biotypes	77	77	–
O=C1[C@H]2C[C@H](F)CN2C(=O)N1c1cc(NS(=O)(=O)CCl)c(Cl)cc1F [(I).1, profluazol]	88	100	very good activity	78	92	very good activity	80	88	very good activity
